{"source": "patent US20220281848A1", "about": "“PYRAZOLE-SUBSTITUTED PYRROLIDINONES AS HERBICIDES” (FMC Corporation, priority 2019, published 2022)", "tested_on": "plants", "assay": "Test D pre-emergence, other plants of Tables D1 and D3", "assay_type": "in vivo", "settings": "for damage to plant (100=total damage to plant; 0=no damage to plant), SORVU: preemergent, 20 DAA; for damage to plant, ALOMY / damage to plant, AVEFA / damage to plant, BEAVA / damage to plant, BROTE / damage to plant, BRSNN / damage to plant, CHEAL / damage to plant, GALAP / damage to plant, HORVW / damage to plant, KCHSC / damage to plant, LOLPE / damage to plant, POAAN / damage to plant, POLCO / damage to plant, SINAR / damage to plant, STEME / damage to plant, VERPE: pre-emergence, 100=total damage, 0=no damage", "protocol": "A formulation containing 50 g/L of the test chemical was prepared by dissolving the active ingredient in a mixture of organic solvents and emulsifier, details of which are provided in the table. This formulation was then mixed with a small, variable amount of acetone to aid dissolution, before addition of a 0.2% v/v aqueous solution of an adjuvant, as the aqueous diluent, to form an aqueous spray solution which contains a predetermined concentration of the active ingredient.\nThis aqueous spray solution was then sprayed onto plants including maize and wheat that had been seed treated with a herbicide safener, after one day's cultivation (for pre-emergence) or after about 12 days' cultivation (for post-emergence). The plants were grown from seeds sown in standard soil, placed in a glasshouse under controlled conditions (at 24/18° C. or 20/16° C., day/night; 16 h light; 65% humidity). After spray application the plants were then grown in a glasshouse under the same conditions and watered twice daily. After 15 d for post-emergence and 20 DAA for pre-emergence the test was evaluated (100=total damage to plant; 0=no damage to plant)."}
{"smiles": "CCn1nc([C@H]2CN(C)C(=O)[C@@H]2C(=O)Nc2cccc(F)c2F)c2c(F)cccc21", "note": "[Compound 7]", "values": [{"measurement": "damage to plant (100=total damage to plant; 0=no damage to plant), SORVU", "setting": "rate 130", "result": 20}, {"measurement": "damage to plant (100=total damage to plant; 0=no damage to plant), SORVU", "setting": "rate 250", "result": 70}, {"measurement": "damage to plant (100=total damage to plant; 0=no damage to plant), SORVU", "setting": "rate 500", "result": 80}, {"measurement": "damage to plant, ALOMY", "setting": "rate 15, 20 DAA", "result": 0}, {"measurement": "damage to plant, AVEFA", "setting": "rate 15, 20 DAA", "result": 0}, {"measurement": "damage to plant, BEAVA", "setting": "rate 15, 20 DAA", "result": 0}, {"measurement": "damage to plant, BROTE", "setting": "rate 15, 20 DAA", "result": 0}, {"measurement": "damage to plant, BRSNN", "setting": "rate 15, 20 DAA", "result": 0}, {"measurement": "damage to plant, CHEAL", "setting": "rate 15, 20 DAA", "result": 0}, {"measurement": "damage to plant, GALAP", "setting": "rate 15, 20 DAA", "result": 0}, {"measurement": "damage to plant, HORVW", "setting": "rate 15, 20 DAA", "result": 0}, {"measurement": "damage to plant, KCHSC", "setting": "rate 15, 20 DAA", "result": 0}, {"measurement": "damage to plant, LOLPE", "setting": "rate 15, 20 DAA", "result": 0}, {"measurement": "damage to plant, POAAN", "setting": "rate 15, 20 DAA", "result": 0}, {"measurement": "damage to plant, POLCO", "setting": "rate 15, 20 DAA", "result": 0}, {"measurement": "damage to plant, SINAR", "setting": "rate 15, 20 DAA", "result": 0}, {"measurement": "damage to plant, STEME", "setting": "rate 15, 20 DAA", "result": 0}, {"measurement": "damage to plant, VERPE", "setting": "rate 15, 20 DAA", "result": 0}, {"measurement": "damage to plant, ALOMY", "setting": "rate 30, 20 DAA", "result": 0}, {"measurement": "damage to plant, AVEFA", "setting": "rate 30, 20 DAA", "result": 0}, {"measurement": "damage to plant, BEAVA", "setting": "rate 30, 20 DAA", "result": 0}, {"measurement": "damage to plant, BROTE", "setting": "rate 30, 20 DAA", "result": 0}, {"measurement": "damage to plant, BRSNN", "setting": "rate 30, 20 DAA", "result": 0}, {"measurement": "damage to plant, CHEAL", "setting": "rate 30, 20 DAA", "result": 0}, {"measurement": "damage to plant, GALAP", "setting": "rate 30, 20 DAA", "result": 0}, {"measurement": "damage to plant, HORVW", "setting": "rate 30, 20 DAA", "result": 0}, {"measurement": "damage to plant, KCHSC", "setting": "rate 30, 20 DAA", "result": 0}, {"measurement": "damage to plant, LOLPE", "setting": "rate 30, 20 DAA", "result": 0}, {"measurement": "damage to plant, POAAN", "setting": "rate 30, 20 DAA", "result": 0}, {"measurement": "damage to plant, POLCO", "setting": "rate 30, 20 DAA", "result": 0}, {"measurement": "damage to plant, SINAR", "setting": "rate 30, 20 DAA", "result": 0}, {"measurement": "damage to plant, STEME", "setting": "rate 30, 20 DAA", "result": 0}, {"measurement": "damage to plant, VERPE", "setting": "rate 30, 20 DAA", "result": 0}, {"measurement": "damage to plant, ALOMY", "setting": "rate 60, 20 DAA", "result": 0}, {"measurement": "damage to plant, AVEFA", "setting": "rate 60, 20 DAA", "result": 0}, {"measurement": "damage to plant, BEAVA", "setting": "rate 60, 20 DAA", "result": 0}, {"measurement": "damage to plant, BROTE", "setting": "rate 60, 20 DAA", "result": 0}, {"measurement": "damage to plant, BRSNN", "setting": "rate 60, 20 DAA", "result": 0}, {"measurement": "damage to plant, CHEAL", "setting": "rate 60, 20 DAA", "result": 0}, {"measurement": "damage to plant, GALAP", "setting": "rate 60, 20 DAA", "result": 0}, {"measurement": "damage to plant, HORVW", "setting": "rate 60, 20 DAA", "result": 0}, {"measurement": "damage to plant, KCHSC", "setting": "rate 60, 20 DAA", "result": 0}, {"measurement": "damage to plant, LOLPE", "setting": "rate 60, 20 DAA", "result": 0}, {"measurement": "damage to plant, POAAN", "setting": "rate 60, 20 DAA", "result": 0}, {"measurement": "damage to plant, POLCO", "setting": "rate 60, 20 DAA", "result": 0}, {"measurement": "damage to plant, SINAR", "setting": "rate 60, 20 DAA", "result": 0}, {"measurement": "damage to plant, STEME", "setting": "rate 60, 20 DAA", "result": 0}, {"measurement": "damage to plant, VERPE", "setting": "rate 60, 20 DAA", "result": 0}, {"measurement": "damage to plant, ALOMY", "setting": "rate 130, 20 DAA", "result": 0}, {"measurement": "damage to plant, AVEFA", "setting": "rate 130, 20 DAA", "result": 10}, {"measurement": "damage to plant, BEAVA", "setting": "rate 130, 20 DAA", "result": 0}, {"measurement": "damage to plant, BROTE", "setting": "rate 130, 20 DAA", "result": 0}, {"measurement": "damage to plant, BRSNN", "setting": "rate 130, 20 DAA", "result": 0}, {"measurement": "damage to plant, CHEAL", "setting": "rate 130, 20 DAA", "result": 0}, {"measurement": "damage to plant, GALAP", "setting": "rate 130, 20 DAA", "result": 0}, {"measurement": "damage to plant, HORVW", "setting": "rate 130, 20 DAA", "result": 0}, {"measurement": "damage to plant, KCHSC", "setting": "rate 130, 20 DAA", "result": 0}, {"measurement": "damage to plant, LOLPE", "setting": "rate 130, 20 DAA", "result": 0}, {"measurement": "damage to plant, POAAN", "setting": "rate 130, 20 DAA", "result": 0}, {"measurement": "damage to plant, POLCO", "setting": "rate 130, 20 DAA", "result": 0}, {"measurement": "damage to plant, SINAR", "setting": "rate 130, 20 DAA", "result": 0}, {"measurement": "damage to plant, STEME", "setting": "rate 130, 20 DAA", "result": 0}, {"measurement": "damage to plant, VERPE", "setting": "rate 130, 20 DAA", "result": 0}, {"measurement": "damage to plant, ALOMY", "setting": "rate 250, 20 DAA", "result": 0}, {"measurement": "damage to plant, AVEFA", "setting": "rate 250, 20 DAA", "result": 20}, {"measurement": "damage to plant, BEAVA", "setting": "rate 250, 20 DAA", "result": 0}, {"measurement": "damage to plant, BROTE", "setting": "rate 250, 20 DAA", "result": 0}, {"measurement": "damage to plant, BRSNN", "setting": "rate 250, 20 DAA", "result": 0}, {"measurement": "damage to plant, CHEAL", "setting": "rate 250, 20 DAA", "result": 0}, {"measurement": "damage to plant, GALAP", "setting": "rate 250, 20 DAA", "result": 0}, {"measurement": "damage to plant, HORVW", "setting": "rate 250, 20 DAA", "result": 0}, {"measurement": "damage to plant, KCHSC", "setting": "rate 250, 20 DAA", "result": 0}, {"measurement": "damage to plant, LOLPE", "setting": "rate 250, 20 DAA", "result": 0}, {"measurement": "damage to plant, POAAN", "setting": "rate 250, 20 DAA", "result": 0}, {"measurement": "damage to plant, POLCO", "setting": "rate 250, 20 DAA", "result": 0}, {"measurement": "damage to plant, SINAR", "setting": "rate 250, 20 DAA", "result": 0}, {"measurement": "damage to plant, STEME", "setting": "rate 250, 20 DAA", "result": 0}, {"measurement": "damage to plant, VERPE", "setting": "rate 250, 20 DAA", "result": 0}, {"measurement": "damage to plant, ALOMY", "setting": "rate 500, 20 DAA", "result": 0}, {"measurement": "damage to plant, AVEFA", "setting": "rate 500, 20 DAA", "result": 50}, {"measurement": "damage to plant, BEAVA", "setting": "rate 500, 20 DAA", "result": 0}, {"measurement": "damage to plant, BROTE", "setting": "rate 500, 20 DAA", "result": 0}, {"measurement": "damage to plant, BRSNN", "setting": "rate 500, 20 DAA", "result": 0}, {"measurement": "damage to plant, CHEAL", "setting": "rate 500, 20 DAA", "result": 0}, {"measurement": "damage to plant, GALAP", "setting": "rate 500, 20 DAA", "result": 0}, {"measurement": "damage to plant, HORVW", "setting": "rate 500, 20 DAA", "result": 0}, {"measurement": "damage to plant, KCHSC", "setting": "rate 500, 20 DAA", "result": 0}, {"measurement": "damage to plant, LOLPE", "setting": "rate 500, 20 DAA", "result": 0}, {"measurement": "damage to plant, POAAN", "setting": "rate 500, 20 DAA", "result": 0}, {"measurement": "damage to plant, POLCO", "setting": "rate 500, 20 DAA", "result": 0}, {"measurement": "damage to plant, SINAR", "setting": "rate 500, 20 DAA", "result": 0}, {"measurement": "damage to plant, STEME", "setting": "rate 500, 20 DAA", "result": 0}, {"measurement": "damage to plant, VERPE", "setting": "rate 500, 20 DAA", "result": 0}]}
